Results from US7223837B2, “Elongated and multiple spacers in activatible prodrugs” (Syntarga B.V., priority 2001, dated 2007).
Converted amounts (≈) assume the structure as drawn.

Tests used:
A498 = assay: Anti-proliferative effect, SRB test; assay type: cell-based, human; settings: A498 renal cancer, 5 days of incubation
Method: (§1) The anti-proliferative effect of prodrugs and parent drugs was determined in vitro applying seven well-characterised human tumor cell lines and the microculture sulphorhodamine B (SRB) test. The anti-proliferative effects were determined and expressed as IC50 values, that are the (pro)drug concentrations that gave 50% inhibition when compared to control cell growth after 5 days of incubation.

EVSA-T = assay: Anti-proliferative effect, SRB test; assay type: cell-based, human; settings: EVSA-T breast cancer, 5 days of incubation
Method: as §1

H226 = assay: Anti-proliferative effect, SRB test; assay type: cell-based, human; settings: H226 non-small cell lung cancer, 5 days of incubation
Method: as §1

IGROV = assay: Anti-proliferative effect, SRB test; assay type: cell-based, human; settings: IGROV ovarian cancer, 5 days of incubation
Method: as §1

M19 = assay: Anti-proliferative effect, SRB test; assay type: cell-based, human; settings: M19 melanoma, 5 days of incubation
Method: as §1

MCF-7 = assay: Anti-proliferative effect, SRB test; assay type: cell-based, human; settings: MCF-7 breast cancer, 5 days of incubation
Method: as §1

WIDR = assay: Anti-proliferative effect, SRB test; assay type: cell-based, human; settings: WIDR colon cancer, 5 days of incubation
Method: as §1

[1] = Stability of prodrugs in 0.1 M Tris/HCl buffer (pH 7.3); settings: TLC
[2] = absence of zinc powder, methanol/acetic acid, same conditions
Method: 36 mg of 2′-[nitrocinnamyl carbonate]-paclitaxel 1 was dissolved in 8 ml methanol and 2 ml acetic acid. A catalytic amount of zinc powder was added and the red mixture was stirred for 12 h. Dichloromethane was added and the organic layer was washed with saturated sodium bicarbonate, 0.5 N potassium bisulfate, brine, and water and dried over anhydrous sodium sulfate.

[3] = 150 μM in 0.1 M Tris/HCl buffer (pH 7.3), 3 days

Compound | ID50 (A498) [µg/mL] | ID50 (EVSA-T) [µg/mL] | ID50 (H226) [µg/mL] | ID50 (IGROV) [µg/mL] | ID50 (M19) [µg/mL] | ID50 (MCF-7) [µg/mL] | ID50 (WIDR) [µg/mL] | formation of degradation products [1, 3] | paclitaxel release without reduction [2] | formation of degradation products ([1]; 100–270 μM in 0.1 M Tris/HCl buffer (pH 7.3), 90 hours)
2′-[H-D-Ala-Phe-Lys-PABC-N(Me)—(CH2)2—N(Me)CO]-paclitaxel (.2HCl) [Prodrug 43] | 0.681 | 0.119 | 0.062 | 0.499 | 0.096 | 0.06 | 0.117 | no formation of degradation products | – | –
COc1cccc2c1C(=O)c1c(O)c3c(c(O)c1C2=O)C[C@@](O)(C(=O)CO)C[C@@H]3O[C@H]1C[C@H](N)[C@H](O)[C@H](C)O1 [Doxorubicin, doxorubicin, reference compound] | 0.09 (≈ 0.166 µM) | 0.008 (≈ 0.0147 µM) | 0.199 (≈ 0.366 µM) | 0.06 (≈ 0.11 µM) | 0.016 (≈ 0.0294 µM) | 0.01 (≈ 0.0184 µM) | 0.011 (≈ 0.0202 µM) | – | – | –
CC(=O)O[C@H]1C(=O)[C@@]2(C)[C@H]([C@H](OC(=O)c3ccccc3)[C@]3(O)C[C@H](OC(=O)[C@H](O)[C@@H](NC(=O)c4ccccc4)c4ccccc4)C(C)=C1C3(C)C)[C@]1(OC(C)=O)CO[C@@H]1C[C@@H]2O [Paclitaxel, paclitaxel, reference compound] | <0.003 | <0.003 | <0.003 | 0.01 (≈ 0.0117 µM) | <0.003 | <0.003 | <0.003 | – | – | –
CC(=O)OC1C(=O)C2(C)C(O)CC3OCC3(OC(C)=O)C2C(OC(=O)c2ccccc2)C2(O)CC(OC(=O)C(OC(=O)OCC=Cc3ccc([N+](=O)[O-])cc3)C(NC(=O)c3ccccc3)c3ccccc3)C(C)=C1C2(C)C (stereo not drawn) [Prodrug 1, 2′-[4-nitrocinnamyl carbonate]-paclitaxel] | – | – | – | – | – | – | – | – | no paclitaxel was formed | –
CC(=O)OC1C(=O)C2(C)C(O)CC3OCC3(OC(C)=O)C2C(OC(=O)c2ccccc2)C2(O)CC(OC(=O)C(OC(=O)OCc3ccc(NC(=O)OCc4ccc(NC(=O)C(CCCCN)NC(=O)C(Cc5ccccc5)NC(=O)C(C)N)cc4)cc3)C(NC(=O)c3ccccc3)c3ccccc3)C(C)=C1C2(C)C.Cl.Cl [Prodrug 22, 2′-[H-D-Ala-Phe-Lys-PABC-PABC]-paclitaxel (.2HCl)] | 0.025 | 0.005 | 0.007 | 0.022 | 0.007 | 0.011 | 0.005 | no formation of degradation products | – | –
H-D-Ala-Phe-Lys-PABC-PABC-DOX.5.7HCl [Prodrug 20] | 2.303 | 0.546 | 0.503 | 0.896 | 0.302 | 0.242 | 0.627 | – | – | no formation of degradation products
